Structures can show the parent of a compound that is named as a salt. Where two headings read alike, the source gives them in different places.
Experiments:
[1] = biological target: T1, murine muscle-type nAChR (Mus musculus, UniProt P02716+P04756+P09690+P20782); experiment: electrophysiology on muscle nAChR expressed in Xenopus laevis oocytes; type: cell-based; details: for inhibition of agonist-evoked current on muscle nAChR (in words): 10 μM acetylcholine; for reversibility of inhibition of muscle nAChR: wash out
T1 construct: expressed in transfected cells; host or cells: Xenopus laevis oocytes injected with plasmid DNA (CMV promoter)

[2] = biological target: L. stagnalis AChBP (Lymnaea stagnalis, UniProt P58154); parameters: method as in PMID 18338186; details: read-out: Kd, affinity to L. stagnalis AChBP; quenching of intrinsic tryptophan fluorescence; cited from earlier work
[3] = 10 μM compound, Xenopus oocytes

T1 sequence (P04756 21-457): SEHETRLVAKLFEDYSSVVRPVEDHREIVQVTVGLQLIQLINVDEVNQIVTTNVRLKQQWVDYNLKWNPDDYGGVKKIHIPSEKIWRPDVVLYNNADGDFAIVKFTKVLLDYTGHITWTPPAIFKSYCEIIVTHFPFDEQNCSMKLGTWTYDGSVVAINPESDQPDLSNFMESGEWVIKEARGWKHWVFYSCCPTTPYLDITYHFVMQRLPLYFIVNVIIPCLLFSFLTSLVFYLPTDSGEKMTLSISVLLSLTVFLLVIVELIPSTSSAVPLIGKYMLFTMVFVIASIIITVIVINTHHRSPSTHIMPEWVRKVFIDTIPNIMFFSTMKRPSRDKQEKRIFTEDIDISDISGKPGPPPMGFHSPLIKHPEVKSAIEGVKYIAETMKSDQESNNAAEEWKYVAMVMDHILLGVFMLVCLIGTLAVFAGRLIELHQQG
T1 sequence (P09690 24-501): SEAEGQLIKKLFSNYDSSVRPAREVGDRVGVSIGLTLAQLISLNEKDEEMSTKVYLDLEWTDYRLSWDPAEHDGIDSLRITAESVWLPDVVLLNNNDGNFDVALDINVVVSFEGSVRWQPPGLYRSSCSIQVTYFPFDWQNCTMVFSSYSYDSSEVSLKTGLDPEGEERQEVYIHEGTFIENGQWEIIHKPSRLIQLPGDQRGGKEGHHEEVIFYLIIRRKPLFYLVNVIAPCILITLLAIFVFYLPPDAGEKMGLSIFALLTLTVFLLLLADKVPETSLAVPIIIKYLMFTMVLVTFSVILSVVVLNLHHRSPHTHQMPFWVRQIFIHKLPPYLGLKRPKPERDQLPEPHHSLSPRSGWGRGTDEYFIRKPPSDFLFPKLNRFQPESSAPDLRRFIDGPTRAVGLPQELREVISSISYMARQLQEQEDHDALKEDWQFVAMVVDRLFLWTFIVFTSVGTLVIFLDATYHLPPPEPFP
T1 sequence (P02716 25-520): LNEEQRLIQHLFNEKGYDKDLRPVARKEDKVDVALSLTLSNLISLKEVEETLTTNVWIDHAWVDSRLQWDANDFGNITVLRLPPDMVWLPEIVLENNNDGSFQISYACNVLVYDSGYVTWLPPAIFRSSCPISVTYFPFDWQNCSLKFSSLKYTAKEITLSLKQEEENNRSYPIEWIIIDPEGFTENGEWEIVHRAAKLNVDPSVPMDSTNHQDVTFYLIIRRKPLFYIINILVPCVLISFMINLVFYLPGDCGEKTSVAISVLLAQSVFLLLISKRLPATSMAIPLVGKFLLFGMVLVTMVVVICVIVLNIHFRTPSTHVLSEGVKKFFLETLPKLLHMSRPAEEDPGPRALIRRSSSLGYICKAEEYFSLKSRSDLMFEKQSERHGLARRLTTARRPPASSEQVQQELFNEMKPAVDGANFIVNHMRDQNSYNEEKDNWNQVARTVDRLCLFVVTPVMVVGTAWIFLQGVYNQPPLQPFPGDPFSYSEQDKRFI
T1 sequence (P20782 21-493): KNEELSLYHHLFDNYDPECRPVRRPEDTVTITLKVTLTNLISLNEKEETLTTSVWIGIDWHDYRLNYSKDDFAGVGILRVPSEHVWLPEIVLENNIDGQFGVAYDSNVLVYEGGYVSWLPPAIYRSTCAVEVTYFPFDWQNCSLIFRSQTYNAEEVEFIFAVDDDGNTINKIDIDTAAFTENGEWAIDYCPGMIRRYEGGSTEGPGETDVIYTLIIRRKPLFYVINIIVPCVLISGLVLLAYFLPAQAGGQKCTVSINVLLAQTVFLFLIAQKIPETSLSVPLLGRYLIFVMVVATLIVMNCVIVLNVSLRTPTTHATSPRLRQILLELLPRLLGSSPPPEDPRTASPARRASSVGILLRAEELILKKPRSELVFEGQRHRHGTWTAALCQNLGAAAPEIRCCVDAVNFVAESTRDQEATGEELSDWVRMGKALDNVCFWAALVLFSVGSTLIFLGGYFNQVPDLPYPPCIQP
L. stagnalis AChBP, sequence (P58154 20-229 limits assumed): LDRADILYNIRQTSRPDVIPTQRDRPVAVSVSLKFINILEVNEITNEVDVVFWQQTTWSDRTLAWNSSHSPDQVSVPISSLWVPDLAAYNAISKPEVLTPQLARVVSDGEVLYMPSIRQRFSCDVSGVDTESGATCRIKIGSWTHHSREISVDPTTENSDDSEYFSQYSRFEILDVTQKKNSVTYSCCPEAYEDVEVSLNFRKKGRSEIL

Structure (SMILES)	inhibition of agonist-evoked current on muscle nAChR (in words) [1, 3]	reversibility of inhibition of muscle nAChR ([1]; 10 μM compound)	IC50 [1] [µM]	also measured
C[C@@H](N)[C@H](O)CCCCCCCC(=O)CCCCCCCCCCCCCC[C@@H](O[C@@H]1O[C@H](CO)[C@H](O)[C@H](O)[C@H]1O)[C@@H](C)N [Compound 1, Rhizochalin]	almost completely	very slowly reversible		
C[C@@H](N)[C@H](O)CCCCCCCCCCCCCCC(=O)CCCCCCC[C@@H](O)[C@@H](C)N [Compound 2, aglycone of rhizochalin]	almost completely	very slowly reversible	2 ± 0.3	
C[C@@H]1C[C@@H]2c3cccc4[nH]c(Br)c(c34)C[C@H]2N(C)C1 [Compound 3, pibocin]	moderate activity		3.7 ± 0.2	
COc1cc(CCN)c2c(c1OC)SSSSS2 [Compound 4, Varacin]	moderate activity		8.7 ± 0.4	
C[N+]1=C2C=C(N)C(=O)c3[nH]cc(c32)CC1 [Compound 5, makaluvamine C]	weaker but still reproducible effect			
Cn1cc2c3c1C(=O)C(N/C=C/c1ccc(O)cc1)=CC3=[N+](C)CC2 [Compound 6, makaluvamine G]	almost completely	fast off-set rate	3.3 ± 0.3	receptor recovery time from the end of compound application ([1]; 10 μM compound, muscle nAChR): 5 min
NC1=N/C(=C2/CCNC(=O)c3[nH]ccc32)C(=O)N1 [Compound 7, Debromohymenialdesine]	extremely weak, if any, activity			
C[n+]1ccccc1-c1cccc[n+]1C [Compound 8, 1,1′-Dimethyl-[2,2′]-bipyridyldiium salt]	extremely weak, if any, activity			
O=C1NCCc2cncn21 [Compound 10, 7,8-Dihydroimidazo-[1,5-c]-pyrimidin-5(6H)-one]	extremely weak, if any, activity			
Cn1c(=N)c2[nH]cnc2n(C)c1=O [Compound 11, 1,3-Dimethylisoguaniniium hydrochloride]	extremely weak, if any, activity			
COc1cc2ccnc3c2c(c1OC)NC=C3 [Compound 12, Aaptamine]	moderate activity			
CC/C=C/[C@@H]1CC[C@]2(C[C@H]3CC[C@H]4[C@@H](C(=O)OC(CC)CCCCCCCCCCCCC[C@@H]5O[C@](O)(CCN)[C@H](O)N(CCCN)C5=O)[C@@]5(CCC[C@H](C)O5)NC(=N2)N34)O1 (some centres unmarked) [Compound 13, monanchocidin]	almost completely	very slowly reversible		IC50 ([1]; read-out: IC50, current inhibition on muscle nAChR, acetylcholine-evoked current (10 μM acetylcholine), Xenopus oocytes): 4.1 ± 0.6 µM
CN/C(=N\[N+](=O)[O-])NCc1cnc(Cl)s1 [clothianidin]				Kd [2]: 7.3 µM

Reference: PMC4012456 (Marine Drugs, 2014)
